This experiment addresses androgen receptor (AR) (Homo sapiens (Human), UniProt P10275). Briefly: Androgen receptor transactivation test in PALM cell line (cross curves against methyl trienolone). It counts as cell-based. As to conditions: read-out: Kdapp. The procedure: This AR inhibiting activity was measured in a transactivation test by the dissociation constants KdR (rest), KdA (active), and Kdapp (apparent).
A compound may be said to be an AR inhibitor if it has a dissociation constant, Kdapp, of less than or equal to 1 μM, and a KdR/KdA ratio of less than or equal to 10 in a transactivation test.
The transactivation test is carried out in the cell line PALM (PC3 androgen receptor Luciferase MMTV), which is a stable transfectant containing the plasmids PMMTV-neo-Luc (reporter gene) and pSG5puro-AR.
In this study, the affinity of each test compound for the 2 states of the receptor (KdR and KdA) is determined together with the apparent Kd (KdApp). This constant depends upon the 2 Kd's (KdR and KdA), but also depends on the initial equilibrium of the receptor between the active state and rest state (L0) and on its expression rate. It is determined by the following formula: 1/KdApp=(L0/(1+L0))×(1/KdR)+(1/(1+L0))×(1/KdA)
In order to determine these constants, “cross curves” of the test compound against a reference agonist, methyl trienolone, are carried out on a 96-well plate. The test compound is used in 10 concentrations and the reference agonist in 7 concentrations.

Where [1] appears, read: apparent dissociation constant, PALM cells (PC3 androgen receptor Luciferase MMTV).

Molecules are shown by their SMILES. pKd: −log10 of the molar value. Like-named read-outs stand apart in the source and are kept apart here.

Sequence of androgen receptor (AR) (P10275 whole entry): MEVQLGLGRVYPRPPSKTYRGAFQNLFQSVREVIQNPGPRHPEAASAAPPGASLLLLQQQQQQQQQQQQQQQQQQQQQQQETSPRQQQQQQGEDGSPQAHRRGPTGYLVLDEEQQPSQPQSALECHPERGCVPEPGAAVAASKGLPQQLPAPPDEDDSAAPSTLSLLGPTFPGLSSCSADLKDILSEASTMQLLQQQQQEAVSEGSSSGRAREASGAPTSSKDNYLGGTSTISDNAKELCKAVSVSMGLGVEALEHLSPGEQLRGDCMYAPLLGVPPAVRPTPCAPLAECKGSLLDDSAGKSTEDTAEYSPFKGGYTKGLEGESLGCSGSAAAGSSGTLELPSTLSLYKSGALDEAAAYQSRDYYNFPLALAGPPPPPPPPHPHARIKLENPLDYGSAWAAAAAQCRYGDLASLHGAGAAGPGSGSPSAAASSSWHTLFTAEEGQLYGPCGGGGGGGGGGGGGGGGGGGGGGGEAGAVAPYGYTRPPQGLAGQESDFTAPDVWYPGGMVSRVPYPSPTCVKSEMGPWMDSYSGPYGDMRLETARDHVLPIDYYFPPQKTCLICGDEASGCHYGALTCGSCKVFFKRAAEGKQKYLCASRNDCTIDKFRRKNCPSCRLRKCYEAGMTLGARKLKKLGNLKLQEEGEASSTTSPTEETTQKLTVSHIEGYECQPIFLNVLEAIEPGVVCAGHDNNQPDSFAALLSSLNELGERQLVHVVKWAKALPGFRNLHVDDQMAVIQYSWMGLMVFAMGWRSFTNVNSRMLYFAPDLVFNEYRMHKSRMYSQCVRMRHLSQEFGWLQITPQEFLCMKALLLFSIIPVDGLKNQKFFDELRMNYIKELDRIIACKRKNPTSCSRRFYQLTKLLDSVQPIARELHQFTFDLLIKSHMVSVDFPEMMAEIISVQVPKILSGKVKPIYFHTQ

Take `COc1cc(NC(=O)C(C)(O)CC(C)C)cc(Br)n1` (single isomer, unassigned) [Compound 71A]: the pKd (threshold lists, PALM cells) is ≥ 7.52. For `CCCCC(C)(O)C(=O)Nc1ccnc(Br)c1` (single isomer, unassigned) [Compound 80B, 2-Hydroxy-2-methyl-hexanoic acid (2-bromo-pyridin-4-yl)-amide], the pKd (threshold lists, PALM cells) was ≥ 6.52.

Regarding `CCC(O)(C(=O)Nc1cc(Br)nc(OC)c1)C1CCCC1` (stereo not shown) [Compound 9, N-(2-Bromo-6-methoxy-pyridin-4-yl)-2-cyclopentyl-2-hydroxy-butyramide], the pKd (threshold lists, PALM cells) is ≥ 7.52. On the same count and under the same terms, as for `CCC(O)(C(=O)Nc1cc(Br)nc(OC)c1)C(C)C` (stereo not shown) [Compound 13, N-(2-Bromo-6-methoxy-pyridin-4-yl)-2-ethyl-2-hydroxy-3-methyl-butyramide], the figure is ≥ 7.52. Consider `COc1ccc(CCC(C)(O)C(=O)Nc2ccnc(Br)c2)cc1` (stereo not shown) [Compound 24, N-(2-Bromo-pyridin-4-yl)-2-hydroxy-4-(4-methoxy-phenyl)-2-methyl-butyramide], for which the pKd is 6.52 under setting [1] and ≥ 6.52 (threshold lists, PALM cells).

For the molecule `COc1cc(NC(=O)C(C)(O)C(C)C)cc(Br)n1` (stereo not shown) [Compound 25, N-(2-Bromo-6-methoxy-pyridin-4-yl)-2-hydroxy-2,3-dimethyl-butyramide], the pKd (threshold lists, PALM cells) was ≥ 7.52. For the molecule `COc1cc(NC(=O)C(C)(O)c2ccc(F)cc2)ccn1` (stereo not shown) [Compound 27, 2-(4-Fluoro-phenyl)-2-hydroxy-N-(2-methoxy-pyridin-4-yl)-propionamide], the pKd (threshold lists, PALM cells) was ≥ 6.52. Consider `CC(O)(C(=O)Nc1ccnc(Br)c1)c1ccccc1` (stereo not shown) [Compound 32, N-(2-Bromo-pyridin-4-yl)-2-hydroxy-2-phenyl-propionamide], for which the pKd is 7.00 under setting [1] and ≥ 7.00 (threshold lists, PALM cells). Regarding `COc1cc(NC(=O)C(C)(C)O)cc(Br)n1` [Compound 38, N-(2-Bromo-6-methoxy-pyridin-4-yl)-2-hydroxy-2-methyl-propionamide], the pKd (threshold lists, PALM cells) is ≥ 6.52. With `CCC(O)(C(=O)Nc1ccnc(Br)c1)C1CCCC1` (stereo not shown) [Compound 51, N-(2-Bromo-pyridin-4-yl)-2-cyclopentyl-2-hydroxy-butyramide], for the setting “threshold lists, PALM cells”, the pKd was ≥ 7.52. As for `CCCC(C)(O)C(=O)Nc1ccnc(C(=O)OC)c1` (stereo not shown) [Compound 59, 4-(2-Hydroxy-2-methyl-pentanoylamino)-pyridine-2-carboxylic acid methyl ester], the pKd is, setting by setting: under setting [1], 5.22; (threshold lists, PALM cells) ≥ 5.00. Consider `CCCC(C)(O)C(=O)Nc1cc(Br)nc(OC)c1` (stereo not shown) [Compound 60, 2-Hydroxy-2-methyl-pentanoic acid (2-bromo-6-methoxy-pyridin-4-yl)-amide], for which the pKd (threshold lists, PALM cells) is ≥ 7.00.

`CCCC(O)(C(=O)Nc1cc(Br)nc(OC)c1)C(C)C` (stereo not shown) [Compound 64, 2-Hydroxy-2-isopropyl-pentanoic acid (2-bromo-6-methoxy-pyridin-4-yl)-amide]: the pKd (threshold lists, PALM cells) was ≥ 7.52. The same measure, in the same setting: as for `CCCCC(O)(CCCC)C(=O)Nc1cc(Br)nc(OC)c1` [Compound 66, 2-Butyl-2-hydroxy-hexanoic acid (2-bromo-6-methoxy-pyridin-4-yl)-amide], the figure is ≥ 7.00. Still for that read-out and setting: the result for `COc1cc(NC(=O)C(C)(O)C2CCOCC2)cc(Br)n1` (stereo not shown) [Compound 69, N-(2-Bromo-6-methoxy-pyridin-4-yl)-2-hydroxy-2-(tetrahydro-pyran-4-yl)-propionamide] reads ≥ 6.00; that for `CCC(O)(C(=O)Nc1cc(Br)nc(OC)c1)C1CCCC1` (stereo not shown) [Compound 73A, N-(2-Bromo-6-methoxy-pyridin-4-yl)-2-cyclopentyl-2-hydroxy-butyramide], ≥ 7.52.

Take `CCC(O)(C(=O)Nc1cc(Br)nc(OC)c1)C1CCCC1` (stereo not shown) [Compound 73B, N-(2-Bromo-6-methoxy-pyridin-4-yl)-2-cyclopentyl-2-hydroxy-butyramide]: the pKd (threshold lists, PALM cells) is ≥ 7.00. Take `CCC(O)(C(=O)Nc1cc(Br)nc(OC)c1)C(C)C` (stereo not shown) [Compound 74A, N-(2-Bromo-6-methoxy-pyridin-4-yl)-2-ethyl-2-hydroxy-3-methyl-butyramide]: the pKd (threshold lists, PALM cells) is ≥ 7.52. In the case of `CCCC(O)(CC)C(=O)Nc1cc(Br)nc(OC)c1` (stereo not shown) [Compound 75A, 2-Ethyl-2-hydroxy-pentanoic acid (2-bromo-6-methoxy-pyridin-4-yl)-amide], the pKd (threshold lists, PALM cells) was ≥ 7.00. `CCCC(O)(CC)C(=O)Nc1cc(Br)nc(OC)c1` (stereo not shown) [Compound 75B, 2-Ethyl-2-hydroxy-pentanoic acid (2-bromo-6-methoxy-pyridin-4-yl)-amide]: the pKd (threshold lists, PALM cells) is ≥ 7.00. `COc1cc(NC(=O)C(C)(O)C(C)C)cc(Br)n1` (stereo not shown) [Compound 76B, N-(2-Bromo-6-methoxy-pyridin-4-yl)-2-hydroxy-2,3-dimethyl-butyramide]: the pKd (threshold lists, PALM cells) is ≥ 7.00.

Consider `CCC(O)(C(=O)Nc1ccnc(Br)c1)C1CCCC1` (stereo not shown) [Compound 77A, N-(2-Bromo-pyridin-4-yl)-2-cyclopentyl-2-hydroxy-butyramide], for which, under “threshold lists, PALM cells”, the pKd was ≥ 7.52.

Take `CCC(O)(C(=O)Nc1ccnc(Br)c1)C1CCCC1` (stereo not shown) [Compound 77B, N-(2-Bromo-pyridin-4-yl)-2-cyclopentyl-2-hydroxy-butyramide]: for the setting “threshold lists, PALM cells”, the pKd is ≥ 7.52. Consider `CCCC(C)(O)C(=O)Nc1cc(Br)nc(OC)c1` (stereo not shown) [Compound 78A, 2-Hydroxy-2-methyl-pentanoic acid (2-bromo-6-methoxy-pyridin-4-yl)-amide], for which, under “threshold lists, PALM cells”, the pKd is ≥ 7.00. As to `CCCC(O)(C(=O)Nc1cc(Br)nc(OC)c1)C(C)C` (stereo not shown) [Compound 79B, 2-Hydroxy-2-isopropyl-pentanoic acid (2-bromo-6-methoxy-pyridin-4-yl)-amide], the pKd (threshold lists, PALM cells) was ≥ 7.52.

Source of the values: patent US9732044B2, “N-(pyrid-4-yl)amides and N-(pyrimidin-4-yl)amides and their pharmaceutical and cosmetic use” (GALDERMA RESEARCH & DEVELOPMENT, priority 2011, dated 2017).
